From patent US11987642B2, “Bispecific HER2 and CD3 binding molecules” (MEMORIAL SLOAN KETTERING CANCER CENTER, priority 2014, dated 2024)

Key:
U2OS osteosarcoma cells = assay: Proliferation assay (WST-8), U2OS; assay type: cell-based, human
Experimental: (§1) Cell proliferation was determined using an ELISA plate reader and the WST-8 kit (Dojindo technologies) following the manufacturer's instructions and using the formula: % survival rate=(Sample-Background)/(Negative control-Background). Lapatinib (MSKCC pharmacy) was ground using a mortar and pestle and suspended in DMSO as previously described. To determine statistical significance, the results were analyzed using one-way ANOVA using Prism 6.0.

SCCHN cell line PCI-30 = assay: Proliferation assay (WST-8), PCI-30; assay type: cell-based, human
Experimental: as §1

[1] = system: HeLa cervical carcinoma cells; assay: Proliferation assay (WST-8), HeLa; assay type: cell-based, human
Experimental: as §1

[2] = system: HeLa cervical carcinoma cells; assay: T cell cytotoxicity assays, HeLa; assay type: cell-based, human; conditions: lapatinib pretreatment
Experimental: The ^51Cr release assay was performed with effector T cells cultured in vitro in the presence of anti-CD3 and anti-CD28 for about 14 days. All target tumor cells were harvested with 2 mM EDTA in PBS, labeled with ^51Cr (Amersham, Arlington Height, IL) at 100 μCi/106 cells at 37° C. for 1 h. 5000 target cells/well were mixed with 50,000 effector cells (E:T=10:1) and BsAb antibodies in 96-well polystyrene round-bottom plates (BD Biosciences) to a final volume of 250 μl/well. The plates were incubated at 37° C. for 4 h. The released ^51Cr in supernatant was counted in a γ-counter (Packed Instrument, Downers Grove, IL). Percentage of specific release was calculated using the formula: (experimental cpm−background cpm)/(total cpm−background cpm)×100%, where cpm represented counts per minute of ^51Cr released. […] EC50 was calculated using SigmaPlot software.

[3] = system: trastuzumab-sensitive breast carcinoma cell line SKBR3; assay: Proliferation assay (WST-8), SKBR3; assay type: cell-based, human; conditions: SKBR3, 72 hours, 10 μg/mL antibody; lapatinib positive control
Experimental: as §1
For cell proliferation assays, 5,000 tumor cells were plated using RPMI-1640 supplemented with 10% FBS in a 96 well plate for 36 hours before being treated with lapatinib or the antibodies at the specified concentrations. […] Lapatinib (Memorial Sloan Kettering Cancer Center pharmacy) was ground using a mortar and pestle and suspended in DMSO as previously described (Chen et al., 2012, Molecular cancer therapeutics 11:660-669). To determine statistical significance, the results were analyzed using one-way ANOVA using Prism 6.0.

HER2-positive cells = assay: Blocking of HER2-BsAb redirected T cell cytotoxicity; assay type: cell-based, human; conditions: pre-incubation with blocking antibody
HCC1954 xenografts = assay: Subcutaneous HCC1954 xenograft with intravenous PBMC; assay type: in vivo, DKO mice
Experimental: Subcutaneous xenografts were created with 5×10^6 cells suspended in Matrigel (Corning Corp, Tewksbury MA) and implanted in the flank of DKO mice. Effector peripheral blood mononuclear cell (PBMC) cells were purified from buffy coats purchased from the New York Blood Center. Prior to every experimental procedure, PBMCs were analyzed for their percentage of CD3, CD4, CD8 and CD56 cells to ensure consistency. […] Tumor size was measured using (1) hand-held TM900 scanner (Pieira, Brussels, BE); (2) Calipers; or (3) bioluminescence. Bioluminescence imaging was conducted using the Xenogen In Vivo Imaging System (IVIS) 200 (Caliper LifeSciences). Briefly, mice were injected intravenously with 0.1 mL solution of D-luciferin (Gold Biotechnology; 30 mg/mL stock in PBS). Images were collected 1 to 2 minutes after injection using the following parameters: a 10- to 60-second exposure time, medium binning, and an 8 f/stop. Bioluminescence image analysis was performed using Living Image 2.6 (Caliper LifeSciences).
In two other separate experiments, subcutaneous HER2-positive breast carcinoma cell line HCC1954 was mixed with subcutaneous PBMCs.

| Compound | sensitivity of cells in proliferation assay (U2OS osteosarcoma cells) | sensitivity of cells in proliferation assay (SCCHN cell line PCI-30) | sensitivity of cells in proliferation assay [1] | effect of pretreatment on sensitivity to HER2-BsAb mediated cytotoxicity [2] | anti-proliferative effect [3] | effect of blocking on HER2-BsAb induced T cell cytotoxicity (HER2-positive cells) | tumor growth (HCC1954 xenografts) |
| --- | --- | --- | --- | --- | --- | --- | --- |
| C#Cc1cccc(Nc2ncnc3cc(OCCOC)c(OCCOC)cc23)c1 [erlotinib] | minimal sensitivity | resistant | pan-resistant | – | – | – | – |
| CS(=O)(=O)CCNCc1ccc(-c2ccc3ncnc(Nc4ccc(OCc5cccc(F)c5)c(Cl)c4)c3c2)o1 [lapatinib] | minimal sensitivity | resistant | pan-resistant | increased sensitivity | strongest inhibition of cell proliferation | – | – |
| CCOc1cc2ncc(C#N)c(Nc3ccc(OCc4ccccn4)c(Cl)c3)c2cc1NC(=O)/C=C/CN(C)C [neratinib] | minimal sensitivity | resistant | pan-resistant | – | – | – | – |
| OKT3: CD3 specific blocking mAb | – | – | – | – | – | prevented HER2-BsAb T cell mediated cytotoxicity | – |
| huOKT3: humanized OKT3 CD3-specific antibody | – | – | – | – | – | blocked the ability of HER2-BsAb to induce T cell cytotoxicity | only modest effects |
